Non-standard residues stand in square brackets, D forms with d. No end group written: not given here. *: point of attachment. βGlc = OC[C@H]1O[C@@H](*)[C@H](O)[C@@H](O)[C@@H]1O; Aib = CC(C)(N)C(=O)O; βAla = NCCC(=O)O
How the values were obtained:
[1] = target: δ opioid receptor (Homo sapiens, UniProt P41143); assay: opioid receptor binding, δ receptor
[2] = target: μ opioid receptor (Homo sapiens, UniProt P35372); assay: opioid receptor binding, μ receptor
[3] = in vivo antinociception after i.c.v. administration; set-up: species or system mice; details: i.c.v., mice; for A50 i.c.v.: antinociception
[4] = helicity by circular dichroism; format: physicochemical; details: for % α-helicity: CD, SDS micelles (30 mM), pH = 7.0, 18° C.
Protocol: Circular Dichroism. All of the circular dichroism experiments were carried out on Aviv Associates model 60DS using an Endcal Model RTE4DD water circulator as a temperature-control vehicle. The instrument was calibrated by using d-10-camphorsulphonic acid. The spectra were recorded between 200 and 250 nm by using the continuous mode with a 1.5 nm bandwidth, a three second response and a scan step of 0.5 nm in a cell with a path length of 0.1 cm. Three or five scans were accumulated and averaged for each spectrum. Glycopeptide stock solutions were prepared by weighing the required amount, using Cahn/Ventron Instruments Model 21 automatic analytical electrobalance, to make 1 mL of a 0.5-1.0 mM solution and the pH was adjusted to the desired value. Samples were prepared by diluting the stock solution to 70-80 μM. All observed spectra were baseline-subtracted and smoothed by adjacent average of 5 points using Microcal Origin Ver. 5.0 software (Microcal Software Inc, USA). The molar ellipticities were determined using the formula [θ]=[θ]obs·(MRW)/10·l·C, where [θ]obs observed ellipticity in millidegrees, MRW is the mean residue weight, l is the cell path length in centimeters and C is the glycopeptide concentration in mg/mL. The percent α-helicity was determined by using the formula % helix=[θ]n→π*/−40,000 (1−2.5/n)·100, where n represents the number of amide bonds (including the C-terminal amide) in the glycopeptide and [θ]n→π** is molar ellipticity of n→π* transition band at 222 nm.^55
Conformational Analysis by CD. Circular dichroism (CD) is a powerful and simple tool for identifying secondary structure in both peptides and proteins.^64 All the peptides were subjected to CD analysis in H2O, TFE-H2O mixtures, SDS micelles and phospholipid bicelles. In H2O, a negative band near 200 nm is observed that arises from the π→π* electronic transition and is typical of random coil peptides. […] This behavior is explained as nascent helices.^65 In these nascent helices, helix CD signals could be induced by the addition of TFE.^66 All the glycopeptides gave an increased helix CD signal in TFE. The percentage of helicity increases as TFE concentration increases, but reached a maximum at 30% TFE. The increase in helicity in TFE can be attributed to decreased competition by H2O for hydrogen bonding to the backbone amides. […] In the presence of SDS micelles and anionic bicelles, the band at 200 nm underwent a red shift (higher value) and an additional shoulder appears around 222 nm as a result of the n→π* transition. […] The negative maxima at 222 nm (n→π* transition band) is used to calculate the helical content of polypeptides and proteins. The accepted value for a peptide that is 100% helical is approximately −35,000. It was observed that changes in amplitude of the bands up to 30% depend on length of helix.^67 The amplitude increases as α-helical chain length increases. Therefore, one has to consider the importance of chain-length dependence of the α-helix CD in the quantitative treatment of helix content in proteins and polypeptides. The percentage of helicity is independent of SDS concentration and pH (data not shown). In the presence of zwitterionic bicelles all of the glycopeptides yielded CD spectra similar to that observed in H2O, but anionic bicelles forced them to become more helical. The intensities of the [θ]π→π* band and the [θ]n→π* band are expected to be almost equal for a perfect α-helical peptide. […] A modest blue shift and reduced intensity for the [θ]n→π* transition bands are observed for all the glycopeptides in TFE. […] The glycopeptides 9 (Pro/Glc) and 12 (Pro/Lactose), which differ only by the sugar moiety attached, adopt perfect helices in the presence of SDS micelles and in anionic bicelles. The disaccharide increased the percentage of helicity in all the solvents, relative to the monosaccharide. […] It is remarkable to note that a single amino acid mutation at position 6 produced profound changes in the CD spectra. […]

[5] = helicity by NMR αCH chemical shift index; format: physicochemical
Protocol: NMR Spectroscopy. All NMR spectra were recorded on a Bruker DRX600 600 MHz spectrometer. Glycopeptide concentration for the NMR experiments varied from 2-3 mM. The glycopeptides were prepared in TFE-water solution by dissolving the peptide in 0.6 ml solution of a premixed 30% TFE-water mixture. The micelle samples were prepared by dissolving the glycopeptide and 100 equivalent of perdeuterated SDS in 0.6 ml of H2O/D2O (9:1 ratio by volume). Bicelles were produced from deuterated phospholipids. The zwitterionic bicelles were made by mixing the short chain phospholipid dihexanoyl-sn-glycero-3-phosphatidylcholine-d22 (DHPC) and the long chain 1,2-dimyristoyl-sn-glycero-3-phosphatidylcholine-d54 (DMPC) in the molar ratio of 2:1 in H2O. The […] were prepared by substituting 10 mol % of 1,2-dimyristoyl-sn-glycero-3-phospho-1-glycerol-d54 (DMPG) for DMPC. The glycopeptide to bicelle ratio was 1:25. After the glycopeptide was added to the bicelle solution, the system was submitted to a series o f three freeze/thaw/slight vortex shaking cycles. The pH of the each sample was adjusted to 4.5 by using DCl or NaOD as necessary. TSP (3-(trimethylsilyl)-d4-propionic acid) was added as an internal standard. The experiments in F3CCD2OD/H2O mixtures were at 293 K and for experiments in micelles/bicelles were at 298 or 311 K. Two-dimensional double quantum filtered correlation (DQF-COSY), rotating-frame Overhauser enhancement^56 (ROESY), Nuclear Overhauser enhancement^57 (NOESY), and total correlation spectra^58 (TOCSY) were acquired using standard pulse sequences and processed using XWINNMR (Bruker Inc) and FELIX2000 (Accelrys Inc, San Diego, Calif.), Mixing times for TOCSY spectra were either 80 or 100 ms. Mixing times for ROESY spectra were 150 or 250 ms, and for NOESY spectra were 200 or 300 ms. All experiments were 750 increments in t1, 16/32/64 scans each, 1.5 s relaxation delay, size 2 or 4K, and the spectral processing was with shifted sine bell window multiplications in both dimensions.
αCH Chemical Shift Index. […] At this point there is no accepted random coil αCH values for glycosylated serine, CSI values for this position are uncertain. The conformational shift values for all solvents were obtained using the random coil values described by Wright and co-workers.^72 Although, these reference shifts were obtained at pH=5.0 at 4.2° C., they appear to be very insensitive to the conditions, as very small deviations (±0.04) were observed when random coil values are obtained at pH=7.0 at 35° C. by Wuthrich and co-workers.^68 The quantification of secondary structure based on αCH chemical shifts is neglected in the literature because various contributions cannot be strictly accounted for, such as electrostatic effects, ring current shifts, and other magnetic anisotropies. However, it is possible to make qualitative comparison of helical content between closely related (glyco)peptides. Since the 3rd generation glycopeptides differ by only one amino acid at position 6, the helical content was obtained based on the αCH chemical shift values (Table 3). The method described by Gierasch and co-workers^69a was used. First, the average conformational shift was calculated for each glycopeptide by adding all upfield shifts in the helical regions and dividing by the total number of peptide bonds. Then, to obtain the overall helical content for each glycopeptide, the average conformational shift was divided by 0.35 ppm, which was assigned for 100% helicity. Since, there are no random coil values available for β-Alanine and glycosylated serine residues, they were not included in the calculation. The helicogenic Aib residue lacks an α-proton, and there was no correction included in the calculation for the helicity provided by Aib residue. The helical content obtained by this method correlated with the helical content obtained by CD. […]

[6] = blood-brain barrier uptake / penetration; details: mice
[7] = target: mu opioid receptor; assay: opioid receptor assay, format not described (Table 1, µ IC50)
[8] = target: delta opioid receptor; assay: opioid receptor assay, format not described (Table 1, δ IC50)
[9] = solvent Bicelle A (anionic bicelles)

Chain of δ opioid receptor (P41143 whole entry): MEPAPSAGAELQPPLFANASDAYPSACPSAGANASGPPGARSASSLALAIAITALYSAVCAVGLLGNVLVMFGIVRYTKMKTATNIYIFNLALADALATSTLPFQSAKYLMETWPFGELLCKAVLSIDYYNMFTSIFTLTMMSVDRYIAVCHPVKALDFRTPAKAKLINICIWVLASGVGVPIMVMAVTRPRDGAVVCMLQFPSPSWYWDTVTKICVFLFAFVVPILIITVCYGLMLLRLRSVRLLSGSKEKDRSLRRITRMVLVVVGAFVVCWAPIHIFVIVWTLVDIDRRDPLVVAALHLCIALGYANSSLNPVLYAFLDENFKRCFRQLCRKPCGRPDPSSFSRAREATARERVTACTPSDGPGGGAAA
Chain of mu opioid receptor (P35372 whole entry): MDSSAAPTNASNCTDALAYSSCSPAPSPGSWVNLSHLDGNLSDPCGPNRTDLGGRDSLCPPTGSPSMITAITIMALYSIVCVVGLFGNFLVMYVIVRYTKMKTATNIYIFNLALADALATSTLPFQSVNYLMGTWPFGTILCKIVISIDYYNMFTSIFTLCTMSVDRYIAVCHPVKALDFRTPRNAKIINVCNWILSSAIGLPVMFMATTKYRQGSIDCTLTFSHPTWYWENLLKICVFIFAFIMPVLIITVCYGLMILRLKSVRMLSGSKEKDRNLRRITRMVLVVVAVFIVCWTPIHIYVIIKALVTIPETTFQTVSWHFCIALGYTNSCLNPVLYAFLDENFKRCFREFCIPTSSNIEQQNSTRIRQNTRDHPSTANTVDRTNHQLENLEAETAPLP
Chain of μ opioid receptor (P35372 whole entry): as above

Molecule `CC(C)C[C@H](NC(=O)[C@H](Cc1ccccc1)NC(=O)CNC(=O)[C@H](NC(=O)[C@@H](N)Cc1ccc(O)cc1)[C@H](C)O)C(=O)NCC(=O)N[C@@H](CCCCN)C(=O)N[C@@H](CO[C@@H]1O[C@H](CO)[C@@H](O)[C@H](O)[C@H]1O)C(=O)N[C@@H](Cc1ccccc1)C(=O)N[C@@H](C)C(=O)N[C@@H](CCC(=O)O)C(=O)N[C@@H](CC(C)C)C(=O)N[C@@H](Cc1c[nH]c2ccccc12)C(=O)N[C@@H](CO[C@@H]1O[C@H](CO)[C@@H](O)[C@H](O)[C@H]1O)C(=O)N[C@@H](CC(N)=O)C(=O)N[C@@H](Cc1ccccc1)C(=O)N[C@@H](CC(C)C)C(=O)N[C@@H](CO[C@@H]1O[C@H](CO)[C@@H](O)[C@H](O)[C@H]1O)C(N)=O` (relative stereo) [Glycopeptide 7, YtGFLGKS*FAELWS*NFLS*] has an IC50 [1] of 0.0256 µM, an IC50 [2] of 0.0382 µM and an A50 i.c.v. [3] of 0.096 nmol. For the same molecule, the “% α-helicity” value [4] was 15%.

`CC(C)C[C@H](NC(=O)[C@H](CO[C@@H]1O[C@H](CO)[C@@H](O)[C@H](O)[C@H]1O)NC(=O)[C@H](CCCCN)NC(=O)[C@H](CC(C)C)NC(=O)[C@H](C)NC(=O)[C@H](CCCCN)NC(=O)[C@H](CCC(=O)O)NC(=O)C(C)(C)NC(=O)[C@H](CC(C)C)NC(=O)[C@H](CC(N)=O)NC(=O)CCNC(=O)[C@H](CC(C)C)NC(=O)[C@H](Cc1ccccc1)NC(=O)CNC(=O)[C@H](NC(=O)[C@@H](N)Cc1ccc(O)cc1)[C@H](C)O)C(N)=O` (relative stereo) [Glycopeptide 10, YtGFLβANLBEKALKS*L] showed an IC50 [1] of 0.109 µM, an IC50 [2] of 0.153 µM and an A50 i.c.v. [3] of 0.030 nmol. The “% α-helicity by CD” value [4, 9] was 27%, the “% α-helicity by CD” value ([4]; solvent H2O) was over 1% and the “% α-helicity by CD” value ([4]; solvent SDS micelles) was 29%. For the same molecule, the “% α-helicity by CD” value ([4]; solvent TFE) was 22%, the “% α-helicity by NMR” value ([5]; solvent H2O) was 17% and the “% α-helicity by NMR” value ([5]; solvent SDS micelles) was 55%. For the same molecule, the “% α-helicity by NMR” value ([5]; solvent TFE) was 32% and the BBB uptake [6] was 0.183 microliters per min per gram of cortex.

For YtGFLPNLBEKALKS**L [Glycopeptide 12], the “% α-helicity by CD” value [4, 9] was 33%, the “% α-helicity by CD” value ([4]; solvent H2O) was over 1% and the “% α-helicity by CD” value ([4]; solvent SDS micelles) was 33%. The “% α-helicity by CD” value ([4]; solvent TFE) was 23%, the “% α-helicity by NMR” value ([5]; solvent H2O) was 22% and the “% α-helicity by NMR” value ([5]; solvent SDS micelles) was 29%. For the same molecule, the “% α-helicity by NMR” value ([5]; solvent TFE) was 34%.

With YtGFLGLLKS*FWES*WS*NF [Glycopeptide 8] the “in vivo potency and duration of action (in words)” value ([3]; within 2nd generation series) was “lowest potency in vivo, but longest duration of action” and the “% α-helicity” value [4] was 39%.

For YtGFLGALKS*FAES*LS*NA [Glycopeptide 5], the “% α-helicity” value [4] was 58%.

`CC(C)C[C@H](NC(=O)CNC(=O)[C@H](CC(C)C)NC(=O)[C@H](Cc1ccccc1)NC(=O)CNC(=O)[C@H](NC(=O)[C@@H](N)Cc1ccc(O)cc1)[C@H](C)O)C(=O)N[C@@H](CC(C)C)C(=O)N[C@@H](CCCCN)C(=O)N[C@@H](CO[C@@H]1O[C@H](CO)[C@@H](O)[C@H](O)[C@H]1O)C(=O)N[C@@H](Cc1ccccc1)C(=O)N[C@@H](C)C(=O)N[C@@H](CCC(=O)O)C(=O)N[C@@H](CO[C@@H]1O[C@H](CO)[C@@H](O)[C@H](O)[C@H]1O)C(=O)N[C@@H](Cc1c[nH]c2ccccc12)C(=O)N[C@@H](CO[C@@H]1O[C@H](CO)[C@@H](O)[C@H](O)[C@H]1O)C(=O)N[C@@H](CC(N)=O)C(=O)N[C@@H](Cc1ccccc1)C(N)=O` (relative stereo) [Glycopeptide 6, YtGFLGLLKS*FAES*WS*NF] gave an IC50 [1] of 0.0119 µM, an IC50 [2] of 0.154 µM and an A50 i.c.v. [3] of 0.028 nmol. For the same molecule, the “% α-helicity” value [4] was 37%.

Y[dT]GFLGELAS(βGlc)KWFNALES(βGlc)-NH2 [Glycopeptide 2 (YtGFLGELAS*KWFNALES*)] gave an IC50 [7] of 0.144 µM and an IC50 [8] of 0.0095 µM.

Work on Y[dT]GFL[βAla]NL[Aib]EKALKS(βGlc)L-NH2 [Glycopeptide 10 (YtGFLβANLBEKALKS*L)] yielded an IC50 [7] of 0.153 µM and an IC50 [8] of 0.109 µM.

Molecule Y[dT]GFLGGNL[Aib]EKALKS(βGlc)L-NH2 [Glycopeptide 11 (YtGFLGGNLBEKALKS*L)] has an IC50 [7] of 0.053 µM and an IC50 [8] of 0.0325 µM.

With Y[dT]GFLGLLKS(βGlc)FAES(βGlc)WS(βGlc)NF-NH2 [Glycopeptide 6 (YtGFLGLLKS*FAES*WS*NF)] the IC50 [7] was 0.154 µM and the IC50 [8] was 0.0119 µM.

Molecule Y[dT]GFLGKS(βGlc)FAELWS(βGlc)NFLS(βGlc)-NH2 [Glycopeptide 7 (YtGFLGKS*FAELWS*NFLS*)] has an IC50 [7] of 0.0382 µM and an IC50 [8] of 0.0256 µM.

In the case of Y[dT]GFLPNL[Aib]EKALKS(βGlc)L-NH2 [Glycopeptide 9 (YtGFLPNLBEKALKS*L)], the IC50 [7] is reported as 0.0908 µM and the IC50 [8] is reported as 0.00615 µM.

Reference: US7803764B2, “Amphipathic glycopeptides” (The Arizona Board of Regents on Behalf of the University of …, priority 2004, dated 2010)
